Key:
[1] = biological target: T1, cystathionine-γ-lyase (CSE) (Homo sapiens, UniProt P32929); assay: methylene blue H2S assay, concentration-response; assay type: biochemical
T1 construct: gene CTH; N-terminal GST fusion (pGEX-4T3), expressed in E. coli BL21(DE3) Codon Plus; eluted with reduced GSH, no tag cleavage described

[2] = biological target: T1, cystathionine-γ-lyase (CSE); assay: methylene blue H2S assay, secondary plot of Lineweaver-Burk slopes; assay type: biochemical
[3] = biological target: T1, cystathionine-γ-lyase (CSE); assay: absorbance spectroscopy; assay type: binding; settings: covalently attached to Lys212
[4] = biological target: T2, cystathionine-ß-synthase (CBS) (Homo sapiens, UniProt P35520); assay: absorbance spectroscopy; assay type: binding; settings: bound at Lys119
T2 construct: N-terminal GST fusion (pGEX-Kg), expressed in E. coli BL21(DE3) Codon Plus; eluted with reduced GSH, no tag cleavage described; homotetramer
T2 sequence (P35520 1-551): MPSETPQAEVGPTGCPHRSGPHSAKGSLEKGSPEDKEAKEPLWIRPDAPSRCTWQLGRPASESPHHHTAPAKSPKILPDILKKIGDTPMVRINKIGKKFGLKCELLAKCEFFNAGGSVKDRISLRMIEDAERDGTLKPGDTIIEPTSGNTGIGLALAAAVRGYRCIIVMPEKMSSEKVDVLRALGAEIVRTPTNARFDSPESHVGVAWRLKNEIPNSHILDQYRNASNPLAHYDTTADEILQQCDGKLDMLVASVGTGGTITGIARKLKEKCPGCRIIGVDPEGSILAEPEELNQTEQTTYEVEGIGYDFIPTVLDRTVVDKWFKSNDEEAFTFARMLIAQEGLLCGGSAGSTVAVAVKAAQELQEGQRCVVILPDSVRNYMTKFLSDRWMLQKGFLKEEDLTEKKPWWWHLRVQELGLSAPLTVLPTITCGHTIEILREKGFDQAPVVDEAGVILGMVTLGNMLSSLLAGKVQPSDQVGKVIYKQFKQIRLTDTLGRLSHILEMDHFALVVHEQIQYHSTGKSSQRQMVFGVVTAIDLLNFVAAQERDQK

T1 sequence (P32929 whole entry, the tested form may be a part): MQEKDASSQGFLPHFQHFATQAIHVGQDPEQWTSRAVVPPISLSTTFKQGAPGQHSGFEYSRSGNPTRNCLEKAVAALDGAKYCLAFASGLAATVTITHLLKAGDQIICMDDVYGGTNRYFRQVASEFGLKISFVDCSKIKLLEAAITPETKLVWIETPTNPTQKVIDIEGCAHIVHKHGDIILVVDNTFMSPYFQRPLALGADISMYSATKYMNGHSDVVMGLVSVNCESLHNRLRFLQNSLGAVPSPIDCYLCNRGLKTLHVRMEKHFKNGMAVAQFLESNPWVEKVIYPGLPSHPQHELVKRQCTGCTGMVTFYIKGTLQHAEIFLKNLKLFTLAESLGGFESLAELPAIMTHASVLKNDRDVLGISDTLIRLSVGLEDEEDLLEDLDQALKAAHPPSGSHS

| IC50 [1] [µM] | Ki [2] [µM] | Structure (SMILES) | absorbance spectroscopy [3] | absorbance spectroscopy [4] |
| --- | --- | --- | --- | --- |
| 6.3 ± 1 | 13 | C#CCNC(=O)[C@@H]1CSC(=O)N1 [2a, compound 2a] |  |  |
| 42.2 ± 1.1 |  | C#CCC(N)C(=O)O (centres unmarked) [PAG] |  |  |
|  |  | Cc1ncc(COP(=O)(O)O)c(C=O)c1O [PLP] | enzymes are correctly folded and bind the respective prosthetic groups | enzymes are correctly folded and bind the respective prosthetic groups |
